Assay results: US10787446B2 (GENENTECH, INC., priority 2015, dated 2020)

What follows are molecules tested against T1, hNav1.7 and the β1 subunit (Homo sapiens, UniProt Q15858) (assay: Tritiated compound competitive binding to membranes from cells heterologously expressing hNav1.7 and the β1 subunit (LBA)). Details: competition with 100 pM [3H]compound, 18 h, room temperature; IC50 by 4 parameter logistic model.
T1 construct: expressed in transfected cells
Method: Example 235 Tritiated Compound Binding to Membranes Isolated from Cells that Heterologously Express hNav1.7 and the β1 Subunit
Preparation of membranes containing recombinantly expressed sodium channels: Frozen recombinant cell pellets were thawed on ice and diluted to 4 times the cell pellet weight with ice cold 50 mM Tris HCl, pH 7.4 buffer. The cell suspensions were homogenized on ice using a motorized glass dounce homogeniser. Homogenates were further diluted 8.4 times with ice cold 50 mM Tris HCl, pH 7.4 buffer and then centrifuged at 200×g at 4° C. for 15 min. The supernatants were collected and centrifuged at 10000×g at 4° C. for 50 min. The pellets were then re-suspended in 100 mM NaCl, 20 mM Tris HCl, pH 7.4 buffer containing 1% v/v protease inhibitors (Calbiochem) and re-homogenized on ice. The homogenized membranes were then processed through a syringe equipped with a 26 gauge needle. Protein concentrations were determined by Bradford Assay and the membranes were stored at −80° C.
Radioligand Binding Studies:
Saturation experiments. A competitive NaV1.7 inhibitor having a methyl group was tritiated. Three tritiums were incorporated in place of methyl hydrogens to generate [^3H]compound. Binding of this radioligand was performed in 5 mL borosilicate glass test tubes at room temperature. Binding was initiated by adding membranes to increasing concentrations of [^3H]compound in 100 mM NaCl, 20 mM Tris HCl, pH 7.4 buffer containing 0.01% w/v bovine serum albumin (BSA) for 18 h. […] After 18 h, the reactants were filtered through GF/C glass fiber filters presoaked in 0.5% w/v polyethylene imine. […] [^3H]compound bound to filters was quantified by liquid scintillation counting.
Competitive Binding Experiments:
Binding reactions were performed in 96-well polypropylene plates at room temperature for 18 h. In 360 μL, membranes were incubated with 100 pM [^3H]compound and increasing concentrations of Test Compound. […] Reactions were transferred and filtered through 96-well glass fiber/C filter plates presoaked with 0.5% polyethylene imine. The filtered reactions were washed 5 times with 200 μL ice cold buffer containing 0.25% BSA. Bound radioactivity was determined by liquid scintillation counting.
Data Analysis: For saturation experiments, non-specific binding was subtracted from total binding to provide specific binding and these values were recalculated in terms of pmol ligand bound per mg protein. Saturation curves were constructed and dissociation constants were calculated using the single site ligand binding model: Beq=(Bmax*X)/(X+Kd), where Beq is the amount of ligand bound at equilibrium, Bmax is the maximum receptor density, Kd is the dissociation constant for the ligand, and X is the free ligand concentration. For competition studies percent inhibition was determined and IC50 values were calculated using a 4 parameter logistic model (% inhibition=(A+((B−A)/(1+((x/C)^D)))) using XLfit, where A and B are the maximal and minimum inhibition respectively, C is the IC50 concentration and D is the (Hill) slope.

T1 sequence (Q15858 whole entry): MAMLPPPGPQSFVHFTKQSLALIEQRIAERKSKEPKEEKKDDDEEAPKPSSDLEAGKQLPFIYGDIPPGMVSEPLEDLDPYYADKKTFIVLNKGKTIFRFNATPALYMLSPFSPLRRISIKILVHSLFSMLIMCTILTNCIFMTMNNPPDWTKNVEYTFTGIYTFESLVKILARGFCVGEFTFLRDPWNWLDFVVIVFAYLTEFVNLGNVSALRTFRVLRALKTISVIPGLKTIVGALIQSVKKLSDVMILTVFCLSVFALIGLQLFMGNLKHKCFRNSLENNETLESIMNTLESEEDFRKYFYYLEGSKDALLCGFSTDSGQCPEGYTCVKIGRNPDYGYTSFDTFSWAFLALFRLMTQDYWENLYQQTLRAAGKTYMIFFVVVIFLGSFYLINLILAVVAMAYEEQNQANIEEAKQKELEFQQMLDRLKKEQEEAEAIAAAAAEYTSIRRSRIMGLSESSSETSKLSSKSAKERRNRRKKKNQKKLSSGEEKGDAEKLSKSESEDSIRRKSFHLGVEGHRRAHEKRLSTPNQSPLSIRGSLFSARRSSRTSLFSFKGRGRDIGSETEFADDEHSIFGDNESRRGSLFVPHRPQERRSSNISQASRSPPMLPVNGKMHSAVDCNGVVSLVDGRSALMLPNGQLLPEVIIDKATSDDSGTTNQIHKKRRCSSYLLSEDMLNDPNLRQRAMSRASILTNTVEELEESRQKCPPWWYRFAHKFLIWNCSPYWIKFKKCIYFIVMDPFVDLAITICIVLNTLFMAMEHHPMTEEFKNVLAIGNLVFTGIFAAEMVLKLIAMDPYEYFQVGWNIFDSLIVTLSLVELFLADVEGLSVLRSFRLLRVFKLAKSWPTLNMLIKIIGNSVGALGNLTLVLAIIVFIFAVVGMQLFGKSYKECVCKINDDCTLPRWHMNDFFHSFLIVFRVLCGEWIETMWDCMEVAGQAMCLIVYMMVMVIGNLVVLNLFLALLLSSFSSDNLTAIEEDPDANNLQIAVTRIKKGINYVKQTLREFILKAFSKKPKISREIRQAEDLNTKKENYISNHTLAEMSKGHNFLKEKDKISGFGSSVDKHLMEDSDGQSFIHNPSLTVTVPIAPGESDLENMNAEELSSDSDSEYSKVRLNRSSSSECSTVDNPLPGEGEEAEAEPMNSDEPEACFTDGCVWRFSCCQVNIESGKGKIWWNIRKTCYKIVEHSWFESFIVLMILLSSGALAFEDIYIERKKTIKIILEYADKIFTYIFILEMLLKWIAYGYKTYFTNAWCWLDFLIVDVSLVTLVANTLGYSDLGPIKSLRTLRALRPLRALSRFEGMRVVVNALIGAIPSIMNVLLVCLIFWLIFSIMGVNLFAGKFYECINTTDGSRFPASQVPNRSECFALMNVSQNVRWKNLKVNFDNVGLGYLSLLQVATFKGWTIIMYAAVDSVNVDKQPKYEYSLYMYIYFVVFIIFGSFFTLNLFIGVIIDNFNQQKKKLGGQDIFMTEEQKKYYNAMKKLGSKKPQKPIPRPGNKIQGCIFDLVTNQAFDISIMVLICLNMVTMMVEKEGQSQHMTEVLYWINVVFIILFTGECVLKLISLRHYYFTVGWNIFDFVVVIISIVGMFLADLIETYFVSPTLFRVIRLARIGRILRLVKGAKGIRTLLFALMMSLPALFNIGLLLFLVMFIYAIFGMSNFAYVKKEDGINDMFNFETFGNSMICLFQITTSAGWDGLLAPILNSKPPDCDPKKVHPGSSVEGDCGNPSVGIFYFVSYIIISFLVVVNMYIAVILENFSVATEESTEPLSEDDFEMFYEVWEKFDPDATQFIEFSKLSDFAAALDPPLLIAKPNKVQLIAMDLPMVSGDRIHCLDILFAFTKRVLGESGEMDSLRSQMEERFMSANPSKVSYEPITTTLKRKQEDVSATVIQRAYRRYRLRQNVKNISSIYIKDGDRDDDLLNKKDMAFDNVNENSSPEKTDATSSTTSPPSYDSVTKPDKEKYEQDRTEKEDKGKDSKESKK
T1 sequence (Q07699 19-218 partner): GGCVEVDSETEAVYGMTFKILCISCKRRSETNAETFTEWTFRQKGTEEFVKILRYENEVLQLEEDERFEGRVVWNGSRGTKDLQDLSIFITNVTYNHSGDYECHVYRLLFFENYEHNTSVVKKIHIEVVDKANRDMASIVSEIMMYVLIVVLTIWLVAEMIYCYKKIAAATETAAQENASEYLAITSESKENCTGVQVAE

| Nav1.7 (LBA) [µM] | Compound |
| --- | --- |
| 1.25 | O=S(=O)(Nc1ncns1)c1ccc2c(c1)CCC[C@@H]2N1CCCC[C@@H]1c1ccccc1 (single isomer, unassigned) [Example 56] |
| 5.04 | C[C@@H](c1ccc(S(=O)(=O)Nc2ncns2)cc1Cl)N1CCCC[C@@H]1c1ccccc1 (single isomer, unassigned) [Example 59] |
| 0.33 | C[C@H](c1ccc(S(=O)(=O)Nc2ncns2)cc1Cl)N1CCCC[C@@H]1c1ccccc1 (single isomer, unassigned) [Example 60] |
| 3.98 | C[C@H](c1ccc(S(=O)(=O)Nc2ncns2)cc1Cl)N1CCCC[C@H]1c1ccccc1 (single isomer, unassigned) [Example 61] |
| 0.597 | O=S(=O)(Nc1ncns1)c1ccc2c(c1)CCC2N1CCCCC1c1ccccc1 (single isomer, unassigned) [Example 66, 1-(2-phenylpiperidin-1-yl)-N-(1,2,4-thiadiazol-5-yl)-2,3-dihydro-1H-indene-5-sulfonamide] |
| 0.0179 | O=S(=O)(Nc1ncns1)c1ccc2c(c1)OCC[C@@H]2N1CCCC[C@H]1c1ccc(F)cc1 (single isomer, unassigned) [Example 76] |
| 0.198 | O=S(=O)(Nc1ncns1)c1ccc2c(c1)OCC[C@H]2N1CCCC[C@H]1c1ccc(F)cc1 (single isomer, unassigned) [Example 77] |
| 0.679 | O=S(=O)(Nc1ncns1)c1ccc2c(c1)OCC[C@@H]2N1CCCC[C@@H]1c1ccc(F)cc1 (single isomer, unassigned) [Example 78] |
| 0.0186 | O=S(=O)(Nc1ncns1)c1ccc2c(c1)OCC[C@H]2N1CCCC[C@@H]1c1ccc(F)cc1 (single isomer, unassigned) [Example 79] |
| 0.142 | O=S(=O)(Nc1ncns1)c1ccc2c(c1)OCC[C@@H]2N1CCc2ccccc2[C@H]1c1ccccc1 (single isomer, unassigned) [Example 80] |
| 0.435 | O=S(=O)(Nc1ncns1)c1ccc2c(c1)OCC[C@H]2N1CCc2ccccc2[C@H]1c1ccccc1 (single isomer, unassigned) [Example 81] |
| 0.0156 | O=S(=O)(Nc1ncns1)c1ccc2c(c1)OCC[C@@H]2N1CCN(CC(F)(F)F)C[C@H]1c1ccccc1 (single isomer, unassigned) [Example 82] |
| 0.0128 | O=S(=O)(Nc1ncns1)c1ccc2c(c1)OCC[C@H]2N1CCN(CC(F)(F)F)C[C@H]1c1ccccc1 (single isomer, unassigned) [Example 83] |
| 0.00991 | O=S(=O)(Nc1ncns1)c1cc2c(cc1F)[C@@H](N1CCCC[C@H]1c1ccccc1)CCO2 (single isomer, unassigned) [Example 84] |
| 0.218 | O=S(=O)(Nc1ncns1)c1cc2c(cc1F)[C@H](N1CCCC[C@H]1c1ccccc1)CCO2 (single isomer, unassigned) [Example 85] |
| 0.00862 | O=S(=O)(Nc1nccs1)c1cc2c(cc1F)[C@@H](N1CCCC[C@H]1c1ccccc1)CCO2 (single isomer, unassigned) [Example 90] |
| 0.109 | O=S(=O)(Nc1nccs1)c1cc2c(cc1F)[C@H](N1CCCC[C@H]1c1ccccc1)CCO2 (single isomer, unassigned) [Example 91] |
| 0.000828 | O=S(=O)(Nc1nccs1)c1cc2c(cc1F)[C@@H](N1CC[C@@H](C(F)(F)F)C[C@H]1c1ccc(F)cc1)CCO2 (single isomer, unassigned) [Example 92] |
| 0.423 | O=S(=O)(Nc1ncccn1)c1cc2c(cc1F)[C@@H](N1CCCC[C@H]1c1ccccc1)CCO2 (single isomer, unassigned) [Example 94] |
| 1.54 | O=S(=O)(Nc1ncccn1)c1cc2c(cc1F)[C@H](N1CCCC[C@H]1c1ccccc1)CCO2 (single isomer, unassigned) [Example 95] |
| 0.0217 | O=S(=O)(Nc1ncccn1)c1cc2c(cc1F)[C@@H](N1CC[C@@H](C(F)(F)F)C[C@H]1c1ccc(F)cc1)CCO2 (single isomer, unassigned) [Example 97] |

| Nav1.7 (LBA) [µM] | Compound |
| --- | --- |
| 1.79 | O=S(=O)(Nc1cscn1)c1cc2c(cc1F)[C@H](N1CCCC[C@H]1c1ccccc1)CCO2 (single isomer, unassigned) [Example 98] |
| 0.091 | O=S(=O)(Nc1cscn1)c1cc2c(cc1F)[C@@H](N1CCCC[C@H]1c1ccccc1)CCO2 (single isomer, unassigned) [Example 99] |
| 0.0221 | O=S(=O)(Nc1nccs1)c1ccc2c(c1)OCC[C@@H]2N1CCCC[C@@H]1c1ccc(F)cc1 (single isomer, unassigned) [Example 100] |
| 0.022 | O=S(=O)(Nc1nccs1)c1ccc2c(c1)OCC[C@@H]2N1CCCC[C@H]1c1ccc(F)cc1 (single isomer, unassigned) [Example 101] |
| 0.072 | O=S(=O)(Nc1nccs1)c1ccc2c(c1)OCC[C@@H]2N1CCCC[C@H]1c1ccccc1 (single isomer, unassigned) [Example 102] |
| 0.90 | O=S(=O)(Nc1nccs1)c1ccc2c(c1)OCC[C@H]2N1CCCC[C@H]1c1ccccc1 (single isomer, unassigned) [Example 103] |
| 1.57 | O=S(=O)(Nc1ncns1)c1cc(F)c(CN2CCC3(CC3)C[C@@H]2c2ccccc2)cc1F (single isomer, unassigned) [Example 109] |
| 0.0923 | O=S(=O)(Nc1ncns1)c1cc(F)c(CN2CC[C@@H](OC(F)(F)F)C[C@H]2c2ccccc2)cc1F (single isomer, unassigned) [Example 111] |
| 8.59 | O=S(=O)(Nc1ncns1)c1cc(F)c(CN2CC[C@H](O)C[C@@H]2c2ccccc2)cc1F (single isomer, unassigned) [Example 113] |
| 0.0237 | O=S(=O)(Nc1ncns1)c1ccc2c(c1)OCC[C@@H]2N1CCCC[C@H]1c1cccnc1 (single isomer, unassigned) [Example 121] |
| 0.0125 | O=S(=O)(Nc1ncns1)c1ccc2c(c1)OCC[C@H]2N1CCCC[C@H]1c1cccnc1 (single isomer, unassigned) [Example 122] |
| 0.000616 | Cn1nccc1[C@@H]1C[C@H](C(F)(F)F)CCN1[C@H]1CCOc2cc(S(=O)(=O)Nc3ncns3)ccc21 (single isomer, unassigned) [Example 123] |
| 0.601 | Cn1nccc1[C@@H]1C[C@H](C(F)(F)F)CCN1[C@@H]1CCOc2cc(S(=O)(=O)Nc3ncns3)ccc21 (single isomer, unassigned) [Example 124] |
| 0.00448 | Cn1nccc1[C@H]1C[C@@H](C(F)(F)F)CCN1[C@H]1CCOc2cc(S(=O)(=O)Nc3ncns3)ccc21 (single isomer, unassigned) [Example 125] |
| 0.313 | Cn1nccc1[C@H]1C[C@@H](C(F)(F)F)CCN1[C@@H]1CCOc2cc(S(=O)(=O)Nc3ncns3)ccc21 (single isomer, unassigned) [Example 126] |
| 0.00883 | CC(C)[C@@H]1CCN([C@H]2CCOc3cc(S(=O)(=O)Nc4ncns4)ccc32)[C@H](c2ccccc2)C1 (single isomer, unassigned) [Example 127] |
| 0.469 | CC(C)[C@@H]1CCN([C@@H]2CCOc3cc(S(=O)(=O)Nc4ncns4)ccc32)[C@H](c2ccccc2)C1 (single isomer, unassigned) [Example 128] |
| 0.0168 | CC(C)[C@H]1CCN([C@H]2CCOc3cc(S(=O)(=O)Nc4ncns4)ccc32)[C@@H](c2ccccc2)C1 (single isomer, unassigned) [Example 129] |
| 0.109 | CC(C)[C@H]1CCN([C@@H]2CCOc3cc(S(=O)(=O)Nc4ncns4)ccc32)[C@@H](c2ccccc2)C1 (single isomer, unassigned) [Example 130] |
| 0.00851 | O=S(=O)(Nc1ncns1)c1ccc2c(c1)OCC[C@@H]2N1CCC(F)(F)C[C@@H]1c1ccc(F)cc1 (single isomer, unassigned) [Example 131] |
| 0.0757 | O=S(=O)(Nc1ncns1)c1ccc2c(c1)OCC[C@H]2N1CCC(F)(F)C[C@@H]1c1ccc(F)cc1 (single isomer, unassigned) [Example 132] |
